How the values were obtained:
[1] = biological target: SARS-CoV-2 spike protein (Severe acute respiratory syndrome coronavirus 2, UniProt P0DTC2); type: binding
[2] = tested on: IgG; assay: Model protein (IgG) capture on nanocoated facemask pieces, Gel-Code protein staining dye; type: binding; settings: FIG. 7, IgG incubated 30 minutes, PBS wash, colour change, relative to uncoated facemask
Text: FIG. 7 depicts the relative binding of a model protein to pieces of facemasks coated with a different one of three bifunctional silane chemicals as well as to uncoated had hydrophobic controls. With reference to FIG. 7, pairs of pieces of standard facemasks (Machimpex, catalogue #1005-544-988) were nanocoated with one of the various chemicals. One pair, shown at the far left, was left uncoated. […] IgG was used as a model for protein capture as it behaved similar to the full-length coronavirus spike protein in plate-binding assays and is likely to have similar activity to that of bacterial coat proteins. The IgG was applied to the facemask fabric and incubated for 30 minutes prior to washing in phosphate buffered saline (PBS). Detection of the captured protein after washing was performed by applying 200 μl Gel-Code protein staining dye (Thermo Fisher Scientific, catalogue #24590) directly to the materials and incubating for one hour. Color change indicating protein capture was documented by photography.

[3] = tested on: Human IgG; settings: FIGS. 4A and 4B; all concentration levels that included IgG, starting at 1 μg/ml; compared with high-protein-binding ELISA plates

In the case of `CCO[Si](CCCNC(=O)/C=C\C(=O)O)(OCC)OCC` [CCH8845, triethoxysilylpropylmaleamic acid], the “overall capability of binding the coronavirus spike protein” value [1] is reported as “bind about equally well as CCH9021, CCH4502, and CCH1053”.
`CCO[Si](CCCNCCN)(OCC)OCC` [CCH9021, N-(2-aminoethyl)-3-aminopropyltriethoxysilane] was tested, and the “capture of model protein (IgG) onto facemask” value [2] was “efficiently captured the protein onto facemask relative to the uncoated facemask”, the “capture of model protein (IgG) onto facemask” value ([2]; listed as NCT9021) was “appears to have captured more efficiently” and the “relative binding of SARS-CoV-2 spike glycoprotein” value [1] was “slightly underperformed the high-protein-binding ELISA plate”.
With `CO[Si](C)(CCCNCCCN(C)C)OC` [CCH699020, 3-(N,N-dimethylaminopropyl)aminopropylmethyldimethoxysilane] the “relative binding of SARS-CoV-2 spike glycoprotein applied at different concentrations” value [1] was “control high-protein-binding ELISA plate significantly outperformed the chemical coating”.
For `CCO[Si](CCCNCCN)(OCC)OCC` [N-(2-aminoethyl)-3-aminopropyltriethoxysilane], the “relative binding of IgG applied at different concentrations” value [3] was “significantly outperformed the high-protein-binding ELISA plates”.

— US12128260B2, “Pathogen capture using active surface modification” (priority 2020, dated 2024)
